The text below walks through data of publication PMC5671655, “LASSBio-897 Reduces Lung Injury Induced by Silica Particles in Mice: Potential Interaction with the A2A Receptor” (Frontiers in Pharmacology, 2017).

Test [1] concerns the target T1, adenosine A2A receptor (Rattus norvegicus, UniProt P30543).
T1 construct: gene Adora2a; rat striatum membrane preparation
Put plainly: radioligand competition with [3H]-CGS21680. The format is binding. In general terms: Loss of bound radioactivity is the signal in a displacement assay; it reports binding, not function.

The target in another test is T2, 5-HT transporter (Homo sapiens, UniProt P31645).
T2 construct: gene SLC6A4
T2 sequence (P31645 whole entry): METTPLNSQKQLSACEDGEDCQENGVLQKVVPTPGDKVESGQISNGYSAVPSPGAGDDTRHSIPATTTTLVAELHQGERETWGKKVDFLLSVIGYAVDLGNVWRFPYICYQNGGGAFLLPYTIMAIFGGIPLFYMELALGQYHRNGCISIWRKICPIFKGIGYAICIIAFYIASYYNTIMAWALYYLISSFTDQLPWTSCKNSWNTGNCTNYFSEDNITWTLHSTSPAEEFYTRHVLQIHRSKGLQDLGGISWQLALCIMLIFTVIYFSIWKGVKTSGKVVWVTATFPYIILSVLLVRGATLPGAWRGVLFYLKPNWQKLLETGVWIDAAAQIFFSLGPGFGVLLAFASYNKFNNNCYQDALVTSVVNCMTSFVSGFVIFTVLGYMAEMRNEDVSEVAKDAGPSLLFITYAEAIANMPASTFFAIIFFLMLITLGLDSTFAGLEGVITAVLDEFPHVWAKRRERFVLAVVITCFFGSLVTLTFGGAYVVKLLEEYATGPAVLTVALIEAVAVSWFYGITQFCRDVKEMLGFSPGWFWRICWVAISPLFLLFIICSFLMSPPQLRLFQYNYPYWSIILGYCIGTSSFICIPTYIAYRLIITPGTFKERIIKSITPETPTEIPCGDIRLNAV
Put plainly: Cerep Diversity Profile screen, single concentration […].

Test [2] has as its target T3, adenosine A2A receptor (Homo sapiens, UniProt P29274).
T3 construct: gene ADORA2A; membrane preparation of HEK293 cells overexpressing the human A2A receptors
Put plainly: radioligand competition with [3H]-adenosine. The format is binding.

T1 sequence (P30543 whole entry): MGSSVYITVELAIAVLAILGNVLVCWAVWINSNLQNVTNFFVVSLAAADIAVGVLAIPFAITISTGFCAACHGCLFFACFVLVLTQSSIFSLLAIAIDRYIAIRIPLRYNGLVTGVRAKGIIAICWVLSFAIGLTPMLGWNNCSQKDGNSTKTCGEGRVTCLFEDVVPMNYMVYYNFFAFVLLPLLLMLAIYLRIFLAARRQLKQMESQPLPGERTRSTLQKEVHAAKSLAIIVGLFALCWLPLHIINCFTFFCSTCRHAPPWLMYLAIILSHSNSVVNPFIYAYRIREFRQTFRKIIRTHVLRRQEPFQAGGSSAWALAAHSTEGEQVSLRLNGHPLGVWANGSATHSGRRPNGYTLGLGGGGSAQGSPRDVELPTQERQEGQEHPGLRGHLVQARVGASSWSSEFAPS
T3 sequence (P29274 whole entry): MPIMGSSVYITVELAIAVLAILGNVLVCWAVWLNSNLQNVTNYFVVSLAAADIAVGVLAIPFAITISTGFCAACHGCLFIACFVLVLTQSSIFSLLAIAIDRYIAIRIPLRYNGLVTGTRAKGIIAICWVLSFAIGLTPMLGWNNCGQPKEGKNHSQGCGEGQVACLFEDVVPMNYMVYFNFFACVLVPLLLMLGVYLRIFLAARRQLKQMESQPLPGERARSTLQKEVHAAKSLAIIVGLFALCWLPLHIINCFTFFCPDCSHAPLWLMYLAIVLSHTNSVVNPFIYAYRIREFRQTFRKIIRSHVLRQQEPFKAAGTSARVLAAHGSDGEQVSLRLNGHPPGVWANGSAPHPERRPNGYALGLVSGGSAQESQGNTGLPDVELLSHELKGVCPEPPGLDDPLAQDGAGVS

As a reminder, the IC50 is the concentration that inhibits the measured activity by half. A low value points to greater potency in that assay. What is called inhibition is the share of the control response that was lost under treatment. A high value points to a strong effect. Turning to `O=C(N/N=C/c1ccsc1)c1ccc2c(c1)OCO2` [LASSBio-897], the 50% inhibitory concentration (IC50) on adenosine A2A receptor [1] was 9.3 µM; on adenosine A2A receptor [2], 11.4 µM. Further, the inhibition at 10 µM against 5-HT transporter was 56%.
